# Data as given in PubChem BioAssay AID276 (DTP/NCI, 2004).
# Values joined by “and” are separate entries in the source; they are usually repeats but may differ in a detail not shown here. Identical values can stand only once. Toxic doses and inconclusive results are not listed.
# Test system: B6C3F1 mice, Lewis lung carcinoma iv, survival T/C
# Assay: NCI In Vivo Anticancer Drug Screen. Data for tumor model Lewis Lung Carcinoma (intravenous) in B6C3F1 mice
# Details: endpoint: median survival time, schedule: Q01DX009 (ip), higher = longer survival
# Summary of the method: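 Mice carrying transplanted tumors received test compound; survival in the treated group was divided by that of the vehicle-treated control group to give the T/C value.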
# [1] = dose: 0.19 mg/kg/injection, vehicle: saline
# [2] = dose: 0.39 mg/kg/injection, vehicle: saline
# [3] = dose: 1.56 mg/kg/injection, vehicle: saline
# [4] = dose: 3.12 mg/kg/injection, vehicle: saline
# [5] = dose: 12.5 mg/kg/injection, vehicle: saline
# [6] = dose: 25.0 mg/kg/injection, vehicle: saline
# [7] = dose: 50.0 mg/kg/injection, vehicle: saline
# [8] = dose: 100.0 mg/kg/injection, vehicle: saline
# [9] = dose: 0.78 mg/kg/injection, vehicle: saline
# [10] = dose: 25.0 mg/kg/injection, vehicle: saline with Tween-80
# [11] = dose: 50.0 mg/kg/injection, vehicle: saline with Tween-80
# [12] = dose: 100.0 mg/kg/injection, vehicle: saline with Tween-80
# [13] = dose: 200.0 mg/kg/injection, vehicle: saline with Tween-80
# [14] = dose: 1.0 mg/kg/injection, vehicle: saline
# [15] = dose: 2.0 mg/kg/injection, vehicle: saline
# [16] = dose: 200.0 mg/kg/injection, vehicle: saline
# [17] = dose: 12.5 mg/kg/injection, vehicle: saline with Tween-80
structure (smiles),measurement,setting,value
C[CH2][Sn]([CH2]C)([O]S(C)(=O)=O)[O]S(C)(=O)=O,T/C,"dose: 0.09 mg/kg/injection, vehicle: saline",108 % of control
same,T/C,[1],97 % of control
same,T/C,[2],99 % of control
same,T/C,"dose: 0.79 mg/kg/injection, vehicle: saline",109 % of control
same,T/C,[3],93 % of control and 102 % of control
same,T/C,[4],91 % of control and 87 % of control
Cc1cc(NCCN(C(C)C)C(C)C)nc(/N=C(\N)Nc2ccc(Cl)c(C(F)(F)F)c2)n1,T/C,"dose: 1.25 mg/kg/injection, vehicle: Klucel (hydroxypropylcellulose) (HPC)",93 % of control and 95 % of control
same,T/C,"dose: 2.5 mg/kg/injection, vehicle: Klucel (hydroxypropylcellulose) (HPC)",95 % of control and 100 % of control
same,T/C,"dose: 5.0 mg/kg/injection, vehicle: Klucel (hydroxypropylcellulose) (HPC)",94 % of control and 96 % of control
same,T/C,"dose: 10.0 mg/kg/injection, vehicle: Klucel (hydroxypropylcellulose) (HPC)",97 % of control and 117 % of control
same,T/C,"dose: 20.0 mg/kg/injection, vehicle: Klucel (hydroxypropylcellulose) (HPC)",94 % of control and 112 % of control
COc1cc(C2c3cc4c(cc3[C@@H](OC3OC5CO[C@@H](C)OC5C(O)C3O)[C@H]3COC(=O)C23)OCO4)cc(OC)c1OC (stereo not given in full),T/C,[5],113 % of control
same,T/C,[6],121 % of control
same,T/C,[7],117 % of control
same,T/C,[8],191 % of control
CC1=CC2C(O)(CC(CO)=CC3C4C(C)(C)C4(OC(=O)c4ccccc4)C(OC(=O)c4ccccc4)C(C)C32O)C1=O (stereo not given),T/C,"dose: 0.12 mg/kg/injection, vehicle: saline with Tween-80",103 % of control
same,T/C,"dose: 0.25 mg/kg/injection, vehicle: saline with Tween-80",107 % of control
same,T/C,"dose: 0.5 mg/kg/injection, vehicle: saline with Tween-80",95 % of control
same,T/C,"dose: 1.0 mg/kg/injection, vehicle: saline with Tween-80",108 % of control
same,T/C,"dose: 2.0 mg/kg/injection, vehicle: saline with Tween-80",99 % of control
S=c1nc[nH]c2nc[nH]c12,T/C,"dose: 15.0 mg/kg/injection, vehicle: Klucel (hydroxypropylcellulose) (HPC)",107 % of control
same,T/C,"dose: 30.0 mg/kg/injection, vehicle: Klucel (hydroxypropylcellulose) (HPC)",116 % of control
CC1=C(O)C(=O)[C@@H]2O[C@@H]2C1=O,T/C,[9],94 % of control and 107 % of control
same,T/C,[3],89 % of control and 103 % of control
same,T/C,[4],92 % of control and 104 % of control
same,T/C,"dose: 6.25 mg/kg/injection, vehicle: saline",95 % of control and 104 % of control
same,T/C,[5],100 % of control and 101 % of control
CCC(=O)Sc1ccccc1C(=O)Nc1ccc(Cl)cc1,T/C,[10],94 % of control
same,T/C,[11],100 % of control
same,T/C,[12],107 % of control
same,T/C,[13],89 % of control
same,T/C,"dose: 400.0 mg/kg/injection, vehicle: saline with Tween-80",105 % of control
CCCCNc1ccc2nnc(C)n2n1,T/C,"dose: 50.0 mg/kg/injection, vehicle: DMSO",100 % of control
same,T/C,"dose: 100.0 mg/kg/injection, vehicle: DMSO",100 % of control
same,T/C,"dose: 200.0 mg/kg/injection, vehicle: DMSO",102 % of control
Cc1c(N)nc([C@H](CC(N)=O)NC[C@H](N)C(N)=O)nc1C(=O)N[C@H](C(=O)N[C@H](C)[C@@H](O)[C@H](C)C(=O)N[C@H](C(=O)NCCc1nc(-c2nc(C(=O)NCCC[S+](C)C)cs2)cs1)[C@@H](C)O)C(OC1OC(CO)C(O)C(O)C1OC1OC(CO)C(O)C(OC(N)=O)C1O)c1cnc[nH]1 (stereo not given in full),T/C,[14],113 % of control
same,T/C,[15],97 % of control and 104 % of control and 112 % of control
CN(C)c1ccc2c(NCCCCCCNc3ccnc4cc(N(C)C)ccc34)ccnc2c1,T/C,"dose: 1.56 mg/kg/injection, vehicle: distilled water + Tween-80 + alcohol",97 % of control
same,T/C,"dose: 3.12 mg/kg/injection, vehicle: distilled water + Tween-80 + alcohol",106 % of control
same,T/C,"dose: 6.25 mg/kg/injection, vehicle: distilled water + Tween-80 + alcohol",111 % of control
same,T/C,"dose: 12.5 mg/kg/injection, vehicle: distilled water + Tween-80 + alcohol",97 % of control
same,T/C,"dose: 25.0 mg/kg/injection, vehicle: distilled water + Tween-80 + alcohol",116 % of control
Nc1nc(F)nc2c1ncn2C1OC(COP(=O)(O)O)C(O)C1O (stereo not given),T/C,[5],105 % of control
same,T/C,[6],102 % of control
same,T/C,[7],103 % of control
same,T/C,[8],114 % of control
same,T/C,[16],87 % of control
CCCCCCOC(CN(C)C)C(Cl)(Cl)Cl (stereo not given),T/C,[17],106 % of control
same,T/C,[10],96 % of control
same,T/C,[11],90 % of control
same,T/C,[12],95 % of control
same,T/C,[13],95 % of control
CCCCCC[C@@H](O)C/C=C\CCCCCCCC(=O)OCCO,T/C,[6],91 % of control
same,T/C,[7],100 % of control
same,T/C,[8],99 % of control
same,T/C,[16],101 % of control
same,T/C,"dose: 400.0 mg/kg/injection, vehicle: saline",99 % of control
same,T/C,"dose: 800.0 mg/kg/injection, vehicle: saline",100 % of control
COc1cc2c(ccc3c4cc(OC)c(OC)cc4c[n+](C)c23)cc1O,T/C,[6],111 % of control
same,T/C,[7],113 % of control
CN(C)CCN1C(=O)c2cccc3cc([N+](=O)[O-])cc(c23)C1=O,T/C,"dose: 0.75 mg/kg/injection, vehicle: saline with Tween-80",94 % of control
same,T/C,"dose: 1.5 mg/kg/injection, vehicle: saline with Tween-80",93 % of control
same,T/C,"dose: 3.0 mg/kg/injection, vehicle: saline with Tween-80",101 % of control
same,T/C,"dose: 6.0 mg/kg/injection, vehicle: saline with Tween-80",95 % of control
C[C@@](O)(/C=C/[C@H]1CC=CC(=O)O1)[C@@H](C[C@@H](O)\C=C/C=C\C=C\CO)OP(=O)(O)O,T/C,"dose: 1.56 mg/kg/injection, vehicle: other",93 % of control
same,T/C,"dose: 3.12 mg/kg/injection, vehicle: other",91 % of control and 93 % of control and 100 % of control
same,T/C,"dose: 6.25 mg/kg/injection, vehicle: other",92 % of control and 95 % of control and 98 % of control
same,T/C,"dose: 12.5 mg/kg/injection, vehicle: other",100 % of control and 103 % of control (2×)
same,T/C,"dose: 25.0 mg/kg/injection, vehicle: other",114 % of control
CCC1CCCCN1C(=S)N/N=C(\C)c1ccccn1 (stereo not given),T/C,"dose: 6.25 mg/kg/injection, vehicle: saline with Tween-80",101 % of control
same,T/C,[17],115 % of control
same,T/C,[10],104 % of control
COc1cc2c(c(OC)c1OC)-c1ccc(OC)c(=O)cc1[C@@H](NC(C)=O)CC2,T/C,"dose: 0.06 mg/kg/injection, vehicle: saline",108 % of control
same,T/C,"dose: 0.12 mg/kg/injection, vehicle: saline",92 % of control
same,T/C,[1],99 % of control
same,T/C,"dose: 0.25 mg/kg/injection, vehicle: saline",100 % of control
same,T/C,[2],104 % of control
same,T/C,"dose: 0.5 mg/kg/injection, vehicle: saline",93 % of control
same,T/C,[9],104 % of control
same,T/C,[14],100 % of control
same,T/C,[15],112 % of control
O=c1nc(-c2ccco2)sc(=O)[nH]1,T/C,"dose: 12.0 mg/kg/injection, vehicle: Klucel (hydroxypropylcellulose) (HPC)",112 % of control
same,T/C,"dose: 25.0 mg/kg/injection, vehicle: Klucel (hydroxypropylcellulose) (HPC)",96 % of control
same,T/C,"dose: 50.0 mg/kg/injection, vehicle: Klucel (hydroxypropylcellulose) (HPC)",105 % of control
same,T/C,"dose: 100.0 mg/kg/injection, vehicle: Klucel (hydroxypropylcellulose) (HPC)",116 % of control
same,T/C,"dose: 200.0 mg/kg/injection, vehicle: Klucel (hydroxypropylcellulose) (HPC)",104 % of control
Cn1cnc([N+](=O)[O-])c1Sc1ncn[nH]1,T/C,[5],104 % of control
same,T/C,[6],111 % of control
same,T/C,[7],124 % of control
same,T/C,[8],116 % of control
